Reference: ChEMBL document CHEMBL1681729, “2-aminomethylphenylamine as a novel scaffold for factor Xa inhibitor” (Bioorg Med Chem, 2011)
≈ marks a conversion by molar mass, not a printed value.

Tests used:
Plasma = assay: Anticoagulant activity in human plasma assessed as concentration required to double prothrombin time; type: functional
[1] = Solubility of the compound in Japanese Pharmacopoeia First Fluid of pH 6.8 by HPLC; type: physicochemical
[2] = Distribution coefficient, log D of the compound at pH 7.4 by LC-MS; type: physicochemical; details: octanol/water
[3] = Solubility of the compound in Japanese Pharmacopoeia First Fluid of pH 1.2 by HPLC; type: physicochemical
Coagulation factor X = Coagulation factor X (Homo sapiens, UniProt P00742); assay: Inhibition of factor 10a by S2222 chromogenic substrate assay by chromogenic assay
Coagulation factor X, sequence (P00742 41-179 limits assumed): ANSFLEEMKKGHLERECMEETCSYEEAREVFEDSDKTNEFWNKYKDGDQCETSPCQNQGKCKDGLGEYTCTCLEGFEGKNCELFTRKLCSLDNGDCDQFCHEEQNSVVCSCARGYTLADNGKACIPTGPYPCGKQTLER
Coagulation factor X, sequence (P00742 235-488 limits assumed): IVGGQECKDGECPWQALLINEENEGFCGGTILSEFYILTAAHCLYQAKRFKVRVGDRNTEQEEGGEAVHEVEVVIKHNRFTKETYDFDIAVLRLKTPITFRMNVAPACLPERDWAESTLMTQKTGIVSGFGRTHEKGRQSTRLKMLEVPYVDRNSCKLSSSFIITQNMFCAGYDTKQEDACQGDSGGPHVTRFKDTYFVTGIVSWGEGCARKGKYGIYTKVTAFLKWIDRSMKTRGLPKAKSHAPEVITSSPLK

Rattus norvegicus [4] = assay: Inhibition of factor 10a in overnight fasted Wistar rat plasma at 10 mg/kg, po after 1 hr by S2222 chromogenic substrate assay; type: functional
Rattus norvegicus [5] = assay: Inhibition of factor 10a in overnight fasted Wistar rat plasma at 10 mg/kg, po after 4 hrs by S2222 chromogenic substrate assay; type: functional
Rattus norvegicus [6] = assay: Inhibition of factor 10a in overnight fasted Wistar rat plasma at 10 mg/kg, po after 0.5 hrs by S2222 chromogenic substrate assay; type: functional
Rattus norvegicus [7] = assay: Inhibition of factor 10a in overnight fasted Wistar rat plasma at 10 mg/kg, po after 2 hrs by S2222 chromogenic substrate assay; type: functional
[8] = Cmax in serum of cynomolgus monkey at 1 mg/kg, po after 0.5 to 24 hrs by LC/MS/MS coupled with HPLC; type: ADME, organism-based, Macaca fascicularis; design: dose 1 mg/kg, route oral
[9] = Half life in serum of cynomolgus monkey at 1 mg/kg, po after 0.5 to 24 hrs; type: ADME, organism-based, Macaca fascicularis; design: dose 1 mg/kg, route oral
[10] = AUC (0 to 24 hrs) in serum of cynomolgus monkey at 1 mg/kg, po after 0.5 to 24 hrs; type: ADME, organism-based, Macaca fascicularis; design: time < 24 hr, dose 1 mg/kg, route oral
[11] = Tmax in serum of cynomolgus monkey at 1 mg/kg, po after 0.5 to 24 hrs; type: ADME, organism-based, Macaca fascicularis; design: dose 1 mg/kg, route oral

Structure (SMILES)	Activity (Plasma)	solubility [1]	logD [2]	solubility [3]	IC50 (Coagulation factor X)	other results
CN1CCc2nc(NC(=O)c3ccccc3CNC(=O)c3ccc(Cl)s3)sc2C1	2.3 µM	100 µg/mL (≈ 224 µM)	2.9	> 640 µg/mL	59 nM	–
CC(C)N1CCC(C(=O)Nc2ccccc2CNC(=O)c2ccc(Cl)s2)CC1	5.2 µM	> 680 µg/mL	1.5	> 680 µg/mL	204 nM	–
O=C(NCc1ccccc1C(=O)Nc1ccc(N2CCOCC2=O)cc1)c1ccc(Cl)s1	1 µM	120 µg/mL (≈ 255 µM)	2.5	140 µg/mL (≈ 298 µM)	9 nM	–
CN1CCc2nc(C(=O)Nc3cccnc3CNC(=O)c3ccc(Cl)s3)sc2C1	1 µM	67 µg/mL (≈ 150 µM)	2.8	890 µg/mL (≈ 1990 µM)	11 nM	–
CN1CCc2nc(C(=O)NCc3ccccc3NC(=O)c3ccc(Cl)s3)sc2C1	–	–	–	–	5680 nM	–
CN1CCc2nc(C(=O)Nc3ccccc3CNC(=O)c3ccc(Cl)s3)sc2C1	–	17 µg/mL (≈ 38 µM)	3.3	150 µg/mL (≈ 336 µM)	–	–
O=C(Nc1ccccc1CNC(=O)c1ccc(Cl)s1)c1ccc(N2CCOCC2=O)cc1	0.91 µM	< 2.3 µg/mL	2.8	< 2.3 µg/mL	4.1 nM	inhibition in vivo at 10 mg/kg (Rattus norvegicus [4]): 14.1%; inhibition in vivo at 10 mg/kg (Rattus norvegicus [5]): 12.7%; inhibition in vivo at 10 mg/kg (Rattus norvegicus [6]): 17.1%; inhibition in vivo at 10 mg/kg (Rattus norvegicus [7]): 12.7%
CN1CCc2nc(C(=O)Nc3ncccc3CNC(=O)c3ccc(Cl)s3)sc2C1	1.5 µM	120 µg/mL (≈ 268 µM)	2.2	860 µg/mL (≈ 1920 µM)	18 nM	–
CN1CCc2nc(C(=O)Nc3ccccc3CNC(=O)c3cc(Cl)c[nH]3)sc2C1	2.2 µM	170 µg/mL (≈ 395 µM)	3.2	690 µg/mL (≈ 1600 µM)	48 nM	–
CN1CCc2nc(C(=O)Nc3ccncc3CNC(=O)c3ccc(Cl)s3)sc2C1	1.4 µM	> 4.9 µg/mL	3.3	880 µg/mL (≈ 1960 µM)	12 nM	–
CN1CCc2nc(C(=O)Nc3ccccc3CNC(=O)c3ccc(Cl)[nH]3)sc2C1	–	33 µg/mL (≈ 76.8 µM)	3.1	> 810 µg/mL	> 10000 nM	–
CN1CCc2nc(C(=O)Nc3ccccc3CNC(=O)c3cccc(Cl)c3)sc2C1	–	160 µg/mL (≈ 363 µM)	3.3	680 µg/mL (≈ 1540 µM)	1620 nM	–
CN1CCc2nc(C(=O)NCCCNC(=O)c3ccc(Cl)s3)sc2C1	7.6 µM	–	–	–	93 nM	–
CN1CCc2nc(C(=O)N3CCCC(CNC(=O)c4ccc(Cl)s4)C3)sc2C1 (stereo unspecified)	–	–	–	–	6830 nM	–
CN1CCc2nc(C(=O)Nc3ccccc3CC(=O)Nc3ccc(Cl)cn3)sc2C1	17 µM	100 µg/mL (≈ 226 µM)	2.8	600 µg/mL (≈ 1360 µM)	623 nM	–
CN1CCc2nc(C(=O)N[C@@H]3CCCC[C@@H]3CNC(=O)c3ccc(Cl)s3)sc2C1 (relative stereo)	3.4 µM	290 µg/mL (≈ 640 µM)	3.7	800 µg/mL (≈ 1770 µM)	27 nM	–
CN1CCc2nc(C(=O)N[C@@H]3CCCC[C@H]3CNC(=O)c3ccc(Cl)s3)sc2C1 (relative stereo)	17 µM	440 µg/mL (≈ 971 µM)	3.5	> 600 µg/mL	439 nM	–
CN1CCc2nc(C(=O)Nc3ccccc3CNC(=O)c3ccc(Cl)s3)sc2C1.Cl	–	–	–	–	–	Cmax [8]: 83.7 ng/mL; half-life [9]: 3.8 h; AUC(0-t) at 24 h [10]: 697 ng·h/mL; Tmax [11]: 0.5 h
CN1CCc2nc(C(=O)Nc3ccccc3CNC(=O)c3cc(Cl)ccn3)sc2C1	–	150 µg/mL (≈ 339 µM)	2.7	760 µg/mL (≈ 1720 µM)	4150 nM	–
CN1CCc2nc(C(=O)Nc3cnccc3CNC(=O)c3ccc(Cl)s3)sc2C1	1.8 µM	> 590 µg/mL	2.6	> 590 µg/mL	13 nM	–
CN1CCc2nc(C(=O)Nc3ccccc3CNC(=O)c3ccc(Cl)cn3)sc2C1	–	380 µg/mL (≈ 860 µM)	2.8	350 µg/mL (≈ 792 µM)	2480 nM	–
CN1CCc2nc(C(=O)N3CCC(NC(=O)c4ccc(Cl)s4)CC3)sc2C1	>20 µM	–	–	–	1020 nM	–
CC(C)N1CCC(NC(=O)c2ccccc2CNC(=O)c2ccc(Cl)s2)CC1	–	> 820 µg/mL	1.4	810 µg/mL (≈ 1930 µM)	1930 nM	–
CN1CCc2nc(C(=O)Nc3ccccc3CNC(=O)c3ccc(Cl)cc3)sc2C1	–	42 µg/mL (≈ 95.2 µM)	3.4	560 µg/mL (≈ 1270 µM)	642 nM	–
